# According to US9402827B2, “Treatment of gout” (ARDEA BIOSCIENCES, INC., priority 2010, dated 2016):
# Several values for one entry are separate records, joined by “and”; a condition that tells them apart may be missing. Identical values can stand only once.
# Key:
# [1] = system: TNF-α; assay: In vitro THP-1 (human cell) assay, TNF-α; type: cell-based; settings: differentiated THP-1 cells, 6 hours, FIG. 3A
# Experimental: (§1) Uric acid (2 g, Sigma, Cat #U0881, Log S89329-419) was heated in a flask at 200° C. for 2 hours. Endotoxin free water (396 mL) followed by aqueous sodium hydroxide solution (2.375 mL of 5N or 1.19 mL 10N) were added and heated on a stir plate until the uric acid dissolved. […] The solution was stirred at room temperature for 24 hours and then centrifuged at 1000 g for 10 min. The supernatant was discarded and resuspended in PBS and centrifuged at 1000 g for 10 min; this step was repeated twice. The washed crystals were heated at 60° C. until dry and then autoclaved at 200° C. for 2 hours. The crystals were then weighed and resuspended in PBS at a concentration of 26 mg/ml.
# (§2) THP-1 cells were differentiated with 0.5 μM of phorbol myristate acetate (PMA) incubated for 3 hours. Cells were then spun down and washed once with HBSS. 1.25×10^6/mL cells were plated in white clear bottom white 96 well plate in 100 μL volume and incubated overnight. The next day the media was aspirated from the wells. 100 μL of 1× Optimem along with the compounds were added.
# [2] = system: IL-1β; assay: In vitro THP-1 (human cell) assay, IL-1β; type: cell-based; settings: differentiated THP-1 cells, 6 hours, FIG. 3B
# Experimental: as §1, §2
# [3] = system: IL-1β; assay: In vitro primary human monocyte assay, IL-1β; type: cell-based; settings: primary human monocytes, FIG. 4A
# Experimental: Blood (50-60 ml) was collected in Heparin vaccutainers (BD vaccutainer, Cat No-367874, Sodium Heparin, 10 ml tube; each holding ˜8-10 ml blood), which was immediately mixed to prevent coagulation. Accuspin-Histopaque 1077 (Sigma Aldrich cat no-A7054) was allowed to reach room temperature and diluted blood 1:1 in DPBS (Dulbecco's Phosphate-Buffered Saline (1×), liquid—Invitrogen, 14040-133), mixed by pipetting. The tubes were centrifuged (800 g; 30 seconds; room temp) to ensure all the Histopaque 1077 was below the high density polyethylene barrier.
# Diluted blood (50 ml) was added to the upper chamber of each ACCUSPIN tube and centrifuged at room temp for 10 minutes at 1000×g or 15 minutes at 800×g, (brakes were off for this step; acc=1, dcl=1). PBMCs were collected from the PBS/Ficoll interphase with a transfer pipette and transferred to a new 50 mL tube. […]
# Supernatant was decanted and 5 mL of RBC lysis solution added to the pellet and mixed well. […] The supernatant was discarded, resuspended in RPMI complete media, and the cells counted.
# The hPBM cells isolated in step A were counted, centrifuged (300 g; 10 min) and the supernatant aspirated. […]
# The centrifuged cells were then resuspended in 5 ml of MACS buffer and applied to the column. […] Cells were spun down (300 g, 5 min; supernatant discarded), resuspended in RPMI complete media and counted.
# [4] = system: monosodium urate (MSU) crystal injection-induced inflammation; assay: In vivo MSU-induced inflammation, rat air pouch study (Example 3B); set-up: species or system Sprague-Dawley rats; settings: for Extravasation (optical absorbance at 620 nm), Av / Extravasation (optical absorbance at 620 nm), individual rats 1-10 / Exudate volume, Av / Exudate volume, individual rats 1-10 / Total white blood cell count, Av / Total white blood cell count, individual rats 1-10: 4 h after MSU
# Experimental: (Air Pouch studies) were unpacked, placed in cages, a health inspection performed and a number assigned. […] Under anesthesia, 30 mL sterile air was injected subcutaneously on day 0 and day 3. Vehicle (water) or Lesinurad were administered orally. On the day of the experiment, rats were dosed with Vehicle, Lesinurad p.o., and/or colchicine s.c. (Sigma, Cat.#C9754, Lot.#188K1131). […] The pouch was gently massaged and the exudate was immediately removed from the air pouch. The exudate volume was measured and recorded for each animal. […] The supernatants were stored at −20° C. for cytokine analysis. […] Plasma extravasation was measured by optical absorbance at 620 nm for each exudate sample.
# [5] = system: MSU-induced knee joint swelling; assay: In vivo MSU-induced inflammation, rat knee joint study (Example 3C); set-up: species or system Sprague-Dawley rats
# Experimental: [table] Groups 1 and 2 were orally dosed with Vehicle (sterile water) once daily for seven days from Day 1. […] Groups 6 and 7 were orally dosed with Lesinurad once daily for seven days from Day 1; Group 7 also received colchicine administered subcutaneously on Day 7. […] The injection was performed from the anterior aspect of the knee joint, which was slightly extended and flexed. […] Four hours after MSU administration, the rats were anesthetized, the diameter of right knee joints were measured with calipers; surface temperature for right knees were measured. Synovial lavage fluid from the knee was collected by injecting phosphate buffered saline with 1% BSA (0.2 mL) into the joint cavity, the fluid then collected, centrifuged and the supernatants stored at −80° C.
# [6] = system: gout flares; assay: Phase II clinical trial, gout dose response study: incidence of gout flares (Example 4); type: in vivo, human
compound,measurement,setting,value
"O=C(O)CSc1nnc(Br)n1-c1ccc(C2CC2)c2ccccc12 [Lesinurad, 2-(5-bromo-4-(4-cyclopropylnaphthalen-1-yl)-4H-1,2,4-triazol-3-ylthio)acetic acid]",IC50,[1],~52 µM
same,IC50,[2],~30 µM
same,IC50,[3]; Monocyte,~50 µM
same,IL-1β inhibition,"[3]; 100 uM, 50 uM and 25 uM",dose dependent IL-1β inhibition
same,"Extravasation (optical absorbance at 620 nm), Av",[4]; Lesinurad 0.1 mg/kg p.o.,1.87
same,"Extravasation (optical absorbance at 620 nm), individual rats 1-10",[4]; Lesinurad 0.1 mg/kg p.o.,1.84 and 1.83 and 1.89 and 2.19 and 1.54 and 2.14 and 1.94 and 1.61 and 1.90 and 1.88
same,"Exudate volume, Av",[4]; Lesinurad 0.1 mg/kg p.o.,9.18 mL
same,"Exudate volume, individual rats 1-10",[4]; Lesinurad 0.1 mg/kg p.o.,8 mL (3×) and 9 mL and 11 mL and 10 mL and 9.6 mL and 9.2 mL and 7 mL and 12 mL
same,"Total white blood cell count, Av",[4]; Lesinurad 0.1 mg/kg p.o.,0.92 ×10^8
same,"Total white blood cell count, individual rats 1-10",[4]; Lesinurad 0.1 mg/kg p.o.,0.14 ×10^8 (2×) and 0.07 ×10^8 and 2.28 ×10^8 and 2.75 ×10^8 and 0.48 ×10^8 and 0.92 ×10^8 and 0.03 ×10^8 and 2.00 ×10^8 and 0.39 ×10^8
same,"Extravasation (optical absorbance at 620 nm), Av",[4]; Lesinurad 1 mg/kg p.o.,1.87
same,"Extravasation (optical absorbance at 620 nm), individual rats 1-10",[4]; Lesinurad 1 mg/kg p.o.,1.79 (2×) and 2.01 and 2.27 and 1.36 and 1.94 and 1.67 and 1.98 and 2.04 and 1.83
same,"Exudate volume, Av",[4]; Lesinurad 1 mg/kg p.o.,9.68 mL
same,"Exudate volume, individual rats 1-10",[4]; Lesinurad 1 mg/kg p.o.,9.6 mL and 7 mL (2×) and 13 mL and 5 mL and 10 mL and 12 mL and 14 mL and 7.8 mL and 11.4 mL
same,"Total white blood cell count, Av",[4]; Lesinurad 1 mg/kg p.o.,0.41 ×10^8
same,"Total white blood cell count, individual rats 1-10",[4]; Lesinurad 1 mg/kg p.o.,0.19 ×10^8 and 0.44 ×10^8 and 0.68 ×10^8 and 0.01 ×10^8 and 0.48 ×10^8 and 0.54 ×10^8 and 0.26 ×10^8 and 1.17 ×10^8 and 0.34 ×10^8 and 0.02 ×10^8
same,"Extravasation, in words",[4]; Lesinurad 10 mg/kg,reduced extravasation
same,"Extravasation (optical absorbance at 620 nm), Av",[4]; Lesinurad 10 mg/kg p.o.,1.03
same,"Extravasation (optical absorbance at 620 nm), individual rats 1-10",[4]; Lesinurad 10 mg/kg p.o.,1.20 and 0.93 and 0.89 and 0.77 and 0.71 and 0.97 and 0.82 (2×) and 1.94 and 1.25
same,"Exudate volume, Av",[4]; Lesinurad 10 mg/kg p.o.,8.29 mL
same,"Exudate volume, individual rats 1-10",[4]; Lesinurad 10 mg/kg p.o.,7 mL and 10 mL and 6 mL (2×) and 8 mL and 9 mL (2×) and 12 mL and 8.4 mL and 7.5 mL
same,"Total white blood cell count, Av",[4]; Lesinurad 10 mg/kg p.o.,0.57 ×10^8
same,"Total white blood cell count, individual rats 1-10",[4]; Lesinurad 10 mg/kg p.o.,0.60 ×10^8 and 0.15 ×10^8 and 0.08 ×10^8 and 0.16 ×10^8 and 0.55 ×10^8 and 1.01 ×10^8 and 1.02 ×10^8 and 0.95 ×10^8 and 0.29 ×10^8 and 0.90 ×10^8
same,"Exudate volume, in words",[4]; Lesinurad 10 mg/kg/day,significantly reduced exudate volume
same,"Number of white blood cells, in words","[4]; Lesinurad 0.1, 1 and 10 mg/kg/day",significantly lowered the number of white blood cells
same,"Exudate volume, in words",[4]; Lesinurad 0.1 and 1 mg/kg/day,did not significantly reduce exudate volume
same,IL-4 levels in the exudates,[4]; cytokines measured in air pouch exudates,significantly reduced IL-4 levels
same,Average increase in knee diameter,"[5]; Lesinurad 60 mg/kg p.o. once daily Day1-Day7, 4 h after MSU, p < 0.001 vs Vehicle",0.46 mm
same,"MSU-induced increase in knee diameter, in words",[5]; Lesinurad 60 mg/kg/day,significantly decreased the MSU-induced increase in knee diameter
same,% of patients with Flares by Dose at Time of Flare,[6]; 400 mg at time of flare (1/65),2% (1/65)
same,Mean Duration of Flares (by dose at time of flare),[6]; 600 mg at time of flare,1.7 days
same,% Patients with Flares,"[6]; Randomized dose group 400 mg, N 33",12%
same,Mean Duration of Flares,[6]; Randomized dose group 600 mg,1.5 days
same,"Duration of flares, in words",[6]; across dose groups 200-600 mg,shorter at higher doses
same,Flares in the first week out of total flares on drug,"[6]; first week, patients receiving 200 mg QD",6/10
